Experimental findings from patent publication EP0509845A1, “(+) and (-) enantiomers of 5-aliphatic-6-(benzoxazinyl- or benzothiazinyl)-2,3,4,5-tetrahydropyridazin-3-ones” (ORTHO PHARMACEUTICAL CORPORATION, priority 1991, dated 1992) are described below.

Read-outs that look alike come from different tables or passages of the source.

In assay [1] the test system is adult mongrel dogs. The assay can be described thus: Cardiotonic activity, racemate testing in anesthetized dogs. The format is in vivo. The procedure: The cardiotonic activity of the compounds was determined in accordance with the method of Alousi, A. A., et al., J. Cir. Res., 45, 666 (l979). Basically, adult mongrel dogs were anesthetized with sodium pentobarbital and artifically respired. Arterial pressure was recorded via a femoral artery and the pressure pulse used to trigger a cardiotachometer for heart rate. Left ventricular pressure was measured with a Millar catheter and dP/dt was derived. Cardiac output was determined by measuring ascending aortic blood flow with an electromagnetic flow probe and myocardial contractile force was measured with a Walton Brodie strain gauge sutured to the right ventricle. Lead II EKG was also recorded. A standard dose of dopamine was administered to assess myocardial responsiveness. Test compounds were administered by i.v. infusion or bolus administration and the effects on cardiovascular parameters were determined. Dose-related effects of the test compound on BP, HR, dP/dt max., C.F. and C.O. were compared to pretreatment control values and expressed as a percentage change.

Assay [2] concerns the target T1, cyclic nucleotide phosphodiesterase (Canis lupus familiaris, UniProt A0A8I3NYE0).
T1 sequence (A0A8I3NYE0 1-1135): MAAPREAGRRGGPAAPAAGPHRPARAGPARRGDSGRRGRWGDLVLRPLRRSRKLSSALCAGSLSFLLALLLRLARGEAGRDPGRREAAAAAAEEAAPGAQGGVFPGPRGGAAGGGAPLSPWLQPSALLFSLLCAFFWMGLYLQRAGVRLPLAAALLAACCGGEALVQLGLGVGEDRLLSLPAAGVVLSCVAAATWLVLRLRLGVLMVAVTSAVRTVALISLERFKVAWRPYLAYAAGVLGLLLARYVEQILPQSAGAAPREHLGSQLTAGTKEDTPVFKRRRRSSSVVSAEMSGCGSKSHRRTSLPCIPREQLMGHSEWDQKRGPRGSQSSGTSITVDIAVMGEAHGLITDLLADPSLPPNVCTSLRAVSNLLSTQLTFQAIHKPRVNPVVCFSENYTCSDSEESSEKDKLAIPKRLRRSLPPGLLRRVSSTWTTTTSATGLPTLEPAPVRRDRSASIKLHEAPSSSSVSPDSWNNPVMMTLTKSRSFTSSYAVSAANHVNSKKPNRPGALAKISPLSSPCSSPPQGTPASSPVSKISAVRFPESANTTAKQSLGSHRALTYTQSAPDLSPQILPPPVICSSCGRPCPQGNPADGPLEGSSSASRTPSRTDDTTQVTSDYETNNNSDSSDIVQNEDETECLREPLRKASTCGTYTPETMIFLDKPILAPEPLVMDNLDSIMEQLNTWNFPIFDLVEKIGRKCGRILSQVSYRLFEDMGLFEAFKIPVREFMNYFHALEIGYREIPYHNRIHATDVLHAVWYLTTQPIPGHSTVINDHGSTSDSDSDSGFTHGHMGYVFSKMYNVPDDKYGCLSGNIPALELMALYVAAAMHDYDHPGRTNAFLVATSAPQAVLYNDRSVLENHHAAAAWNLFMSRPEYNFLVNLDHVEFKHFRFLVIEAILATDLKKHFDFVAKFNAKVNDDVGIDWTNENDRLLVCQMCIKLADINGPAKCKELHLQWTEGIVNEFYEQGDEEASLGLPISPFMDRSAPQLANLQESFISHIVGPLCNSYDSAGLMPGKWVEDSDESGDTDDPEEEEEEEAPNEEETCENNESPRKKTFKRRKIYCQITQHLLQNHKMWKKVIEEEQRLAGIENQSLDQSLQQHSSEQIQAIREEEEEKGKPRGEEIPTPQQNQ
The assay can be described thus: Phosphodiesterase inhibitory activity, racemate testing. The format is biochemical. The settings on record: read-out: IC50 (Micromolar concentration for 50% inhibition of cyclic nucleotide activity); cyclic AMP as substrate, Tris-Cl buffer pH 7.4.

In assay [3] the test system is adult mongrel dogs. The assay can be described thus: Comparative racemate and enantiomer hemodynamic testing in pentobarbital anesthetized open-chest dogs. The format is in vivo. The settings on record: dogs. The procedure:
Adult mongrel dogs weighing approximately l0-l4 kg were anesthetized with sodium pentobarbital (35 mg/kg, i.p.) and artificially respired. A femoral artery was cannulated to measure mean arterial pressure (MAP) and a femoral vein was cannulated for administering compounds. A Millar microtip pressure transducer was placed in the left ventricle via the left carotid artery to measure left ventricular end diastolic pressure (EDP). pressure pulses triggered a cardiotachometer for determination of heart rate (HR) while the left ventricular pressure waveform was differentiated using a Gould differentiating amplifier to yield dP/dtmax, an index of contractility. A right thoractomy was performed at the fourth intercostal space and the pericardial sac was opened. An externally calibrated Walton-Brodie strain gauge arch was sutured to the right ventricular free wall and stretched to produce a baseline force of approximately l00g. Subsequent changes in right ventricular contractile force (CF) were measured from this baseline. A Carolina electromagnetic flow probe was placed on the ascending aorta to estimate cardiac output (CO). A flexible fluid-filled catheter was inserted into the tip of the right atrium to measure right atrial pressure (RAP). Needle electrodes were placed in the appropriate limbs to record a lead II electrocardiogram (ECG). The following formulas were used to calculate derived parameters: Stroke volume (SV) = CO/HR x l000 Stroke work (SW) = ([…]) x SV Total peripheral resistance (TPR) = (MAP-EDP)/CO
Following surgery and stabilization of hemodynamic parameters, an i.v. infusion of dopamine (l0-l5 µg/kg/min for 3 min) was administered with a Harvard infusion pump to assess responsiveness to positive inotropic stimulation. Baseline hemodynamic values were obtained immediately prior to drug infusion. Responses were continuously monitored on a recorder (Gould 2800) and data collection was facilitated by the use of a Buxco cardiovascular analyzer and data logger.
In the comparative testing a stock solution of each enantiomer (l mg/ml) was prepared fresh daily and diluted before use. Compounds were dissolved in a small volume of dimethylformamide (DMF) and diluted with saline for a final concentration of l5% DMF. Further dilutions were made with a l5% DMF solution.
In the comparative testing each compound was administered in cumulative doses to separate dogs. Data were obtained at the end of each dose. (±) Bemoradan and (+) Bemordan were infused at cumulative doses of 5, l5, 35 and 75 µg/kg, administered with a Harvard infusion pump for 5 minutes each at rates of 0.56, l.l, 2.2, and […], respectively. (-) Bemoradan was given at doses of 5, l5 and 35 µg/kg following the same protocol. The high dose of the (-) isomer was not administered as a means of conserving compound.
Hemodynamic results were expressed as the percent change from pre-drug baseline values and compared using a Dunnett's test with a criterion for significance of p < 0.05. Contractile force ED₄₀ values (i.e., the dose which increased contractile force by 40%) were calculated from dose-response regression lines.

In assay [4] the target is T2, canine cardiac cyclic nucleotide phosphodiesterase (PDE) fraction III (Canis lupus familiaris, UniProt A0A8I3NYE0).
T2 construct: The fraction III isoenzyme was pooled and dialyzed; from tissue; host or cells: canine heart, soluble supernatant, DEAE cellulose fraction III (800 mM sodium acetate eluate)
T2 sequence (A0A8I3NYE0 1-1135): T1 sequence (A0A8I3NYE0 1-1135)
The assay can be described thus: Cyclic AMP phosphodiesterase assay with fraction III isoenzyme, comparative testing. The format is biochemical.

Assay [5] relates to human platelet aggregation. The assay can be described thus: Platelet aggregation in vitro in platelet rich plasma. The format is cell-based. The settings on record: Homo sapiens, Platelet, human PRP. The procedure:
The racemate and enantiomeric Bemoradan were tested for their effects in vitro on human platelet aggregation. Platelet rich plasma (PRP) was prepared from human donors who were free of aspirin for the preceding week. Venous blood was collected in sodium citrate vacutainer tubes and PRP was obtained by centrifuging the blood at l000 rpm for 5 min. Compounds were dissolved in methanol and added to 480 µl of PRP in a Chrono-log dual channel aggregometer l min prior to aggregant. Serotonin at 5 µM or ADP at 2 µM were the aggregating agents.

On to `CN1C(=O)CSc2ccc(C3=NNC(=O)CC3)cc21` [Example 55, 6-(3,4-Dihydro-4-methyl-3-oxo-l,4[2H]-benzothiazin-6-yl)-2,3,4,5-tetrahydropyridazin-3-one], for which, in the assay with adult mongrel dogs [1] (I.V. dose 0.035 mpk), the “CF (Percent increase in cardiac force)” value is reported as 160%. Further, the IC50 in assay [2] is < 0.1 µM.

With `CC1CC(=O)NN=C1c1ccc2c(c1)OCC(=O)N2` (racemic) [Example 46, 6-(3,4-Dihydro-3-oxo-l,4(2H)-benzoxazin-7-yl)-2,3,4,5-tetrahydro-5-methylpyridazin-3-one], the ED40 in the assay with adult mongrel dogs [3] (Canis lupus familiaris, iv, Table I summary, dose increasing contractile force by 40%, i.v., read-out: In vivo inotropic ED40, i.v.) was found to be 4.4 µg/kg. Further, in the assay with adult mongrel dogs [3] (dose causing a 40% increase in contractility above baseline, from dose-response regression lines, i.v. infusion), the “CF ED40 (µg/kg) with 95% F.L.” value is on record as 4.4 (3.9 - 4.9) µg/kg. In addition, the IC50 in assay [4] (Table I summary, canine cardiac PDE fraction III, read-out: PDE III inhibition (IC50)) amounted to 0.71 µM; in assay [4] (canine heart fraction III, 0.1 µM cyclic AMP, read-out: PDE III IC50) it was 0.71 µM; in assay [5] (ADP at 2 µM, read-out: Antiaggregatory IC50 (µM) vs. ADP) it was 0.65 µM; in assay [5] (Serotonin at 5 µM, read-out: Antiaggregatory IC50 (µM) vs. 5-HT), 0.4 µM; in assay [5] (Table I summary, ADP at 2 µM as aggregant, read-out: Platelet aggregation (IC50) vs. ADP), 0.65 µM; in assay [5] (Table I summary, serotonin at 5 µM as aggregant, read-out: Platelet aggregation (IC50) vs. 5-HT (serotonin)) it was 0.4 µM.

For `O=C1CCC(c2ccc3c(c2)NC(=O)CS3)=NN1` [Example 54, 6-(3,4-Dihydro-3-oxo-l,4[2H]-benzothiazin-6-yl)-2,3,4,5-tetrahydropyridazin-3-one], the “CF (Percent increase in cardiac force)” value in the assay on adult mongrel dogs [1] (I.V. dose 0.075 mpk) was determined as 11%. The IC50 in assay [2] was determined as 22 µM.

As to `COC(=O)CC(C)C(=O)c1ccc2c(c1)SCC(=O)N2C` (stereo not drawn) [Example 53, Methyl 4-(3,4-dihydro-4-methyl-3-oxo-l,4[2H]-benzothiazin-7-yl)-3-methyl-4-oxobutyrate], in the assay with adult mongrel dogs [1] (I.V. dose 0.075 mpk), the “CF (Percent increase in cardiac force)” value amounted to 21%. Moreover, the IC50 in assay [2] was determined as 25 µM.

Consider “6-(3,4-Dihydro-3-oxo-l,4[2H]-benzothiazin-7-yl)-2,3,4,5-tetrahydro-5-methylpyridazin-3-one [Example 56]”, for which, in the assay on adult mongrel dogs [1] (I.V. dose 0.027 mpk), the “CF (Percent increase in cardiac force)” value is 32%.
